Data published in PubChem BioAssay AID1417 (Emory University Molecular Libraries Screening Center, 2008).

target: Induced myeloid leukemia cell differentiation protein Mcl-1 (Homo sapiens) (UniProt Q07820); experiment: Mcl-1 Noxa peptide disruption concentration-response – biochemical, TR-FRET, dose response (AID 1417); settings: Mcl-1/Noxa peptide interaction, cell-free TR-FRET (terbium/rhodamine), 2 h; measured here: absolute IC50
Sequence (Q07820 whole entry, looked up): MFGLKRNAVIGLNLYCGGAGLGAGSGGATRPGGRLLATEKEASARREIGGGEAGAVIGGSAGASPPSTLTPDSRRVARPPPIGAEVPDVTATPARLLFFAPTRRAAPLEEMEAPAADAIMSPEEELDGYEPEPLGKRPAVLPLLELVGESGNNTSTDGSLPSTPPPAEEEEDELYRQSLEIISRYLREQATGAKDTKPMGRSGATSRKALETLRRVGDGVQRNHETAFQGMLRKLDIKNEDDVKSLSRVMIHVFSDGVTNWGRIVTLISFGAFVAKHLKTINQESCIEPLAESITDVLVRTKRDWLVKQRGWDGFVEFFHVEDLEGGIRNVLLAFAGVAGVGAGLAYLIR

Structure (SMILES) | IC50
Cc1ccc(N=C2NC(=O)S/C2=C\c2ccco2)cc1 | 8570 nM
O=C(CSc1nnc(-c2ccco2)c(-c2ccco2)n1)Nc1ccccc1 | 2920 nM
Cc1cc(NC(=O)CSc2nc(-c3ccc(F)cc3)cs2)no1 | > 54000 nM
CN(C)c1ccc(NC(=O)c2ccc(COc3cccc(Cl)c3)o2)cc1 | < 400 nM
CC(=O)Nc1ccc(C2=NNC(=Nc3ccc(S(=O)(=O)N4CCOCC4)cc3)SC2)cc1 | < 400 nM
CCN(CC)c1ccc(NC(=O)/C=C\c2ccccc2Cl)cc1 | < 400 nM
O=C(O)c1ccc(Nc2nc(-c3cc4ccccc4oc3=O)cs2)cc1O | 5360 nM
COc1cc(/C=C(/NC(C)=O)C(=O)O)cc(Cl)c1OCc1ccc(Br)cc1 | > 54000 nM
Cc1ccc(NC(=O)CSc2nnc(-c3ccco3)c(-c3ccco3)n2)cc1 | 3290 nM
Brc1ccc(C2Nc3cccc4cccc(c34)N2)s1 | < 400 nM
Cc1cccc2c1c1ccc3c(c1n2C)C(=O)C=CC3=O | < 400 nM
Nc1cccc(C2=Nc3cccc4cccc(c34)N2)c1 | < 400 nM
Cc1nc2ccc(NC(=O)c3cc([N+](=O)[O-])cc([N+](=O)[O-])c3Cl)cc2s1 | 1300 nM
CNc1ccc(Br)cc(C(=O)/C=C/c2ccc(OC)cc2OC)c1=O | 3530 nM
NC(=O)c1ccsc1NC(=O)COC(=O)/C=C/c1ccc([N+](=O)[O-])cc1 | 2880 nM
COc1ccc(CN2C(=O)NC(=O)/C(=C/c3ccc([N+](=O)[O-])o3)C2=O)cc1 | 2810 nM
Cc1ccc(C)c(S(=O)(=O)Nc2cc(SCC(=O)O)c(O)c3ccccc23)c1 | < 400 nM
O=C1c2ccc([N+](=O)[O-])cc2NC(c2ccco2)N1/N=C/c1ccco1 (centres undefined) | > 54000 nM
CCCCc1[nH]nc2c1C1(C(=O)N(CC)c3ccccc31)C(C#N)=C(N)O2 (centres undefined) | > 54000 nM
Oc1ccc(N2CCN(c3ncnc4sc(-c5ccccc5)cc34)CC2)cc1 | 1150 nM
Cc1cc(C)c2nc(-c3ccccn3)cc(C(=O)Nc3ccc(S(=O)(=O)Nc4onc(C)c4C)cc3)c2c1 | 2820 nM
CCOC(=O)C1=C(O)c2ccccc2C(=O)/C1=C\c1ccc(CC)cc1 | < 400 nM
COc1cc(/C=C2/C(=O)c3cccc([N+](=O)[O-])c3C2=O)c(Br)cc1O | < 400 nM
CCN(CC)c1ccc(NC2=C(Cl)C(=O)c3ccccc3C2=O)cc1 | < 400 nM
COc1ccccc1C1=Nc2cccc3cccc(c23)N1 | > 54000 nM
Cc1ccc2c(c1)C1C=CCC1C(C(=O)O)N2 (centres undefined) | < 400 nM

Structure (SMILES) | IC50
CCNC(=O)COC(=O)c1cc(-c2ccco2)nc2ccccc12 | 1810 nM
Cc1sc(-n2c(C)cc(/C=C3\SC(=S)NC3=O)c2C)c(C#N)c1C | 4070 nM
CCOC(=O)c1[nH]c2c(c1C)C(=O)CC(c1ccco1)C2 (centres undefined) | 5640 nM
CC(C)(C)c1cc(-c2csc(Nc3ccccc3)[n+]2Cc2ccc(C(=O)O)cc2)cc(C(C)(C)C)c1O | 1320 nM
CC(C)N1CCc2c(sc(NC(=O)c3cc4cc([N+](=O)[O-])ccc4s3)c2C(N)=O)C1 | 3950 nM
O=C1NC(=O)N(c2ccccc2)C(=O)/C1=C\c1ccc2c3c(cccc13)CC2 | 8210 nM
CN(C)c1ccc(NC(=O)Nc2cccc(Cl)c2)cc1 | < 400 nM
COC1=C/C(=C/c2c(N)n3nc(-c4ccc(C)cc4)sc3nc2=O)C=CC1=O | 2820 nM
O=C1N=c2ccc(Br)cc2=C1c1sc(=S)n(NS(=O)(=O)c2ccccc2)c1O | > 54000 nM
O=C(O)CCCN1C(=O)/C(=C/C=C/c2ccco2)SC1=S | > 54000 nM
O=C(Nc1ccc(N2CCOCC2)cc1)Nc1ccc2nc(-c3ccco3)c(-c3ccco3)nc2c1 | < 400 nM
COc1cc(SSc2cc(OC)cc([N+](=O)[O-])c2N)c(N)c([N+](=O)[O-])c1 | < 400 nM
Cc1c(C(=O)N/N=C/c2ccc(-c3ccccc3[N+](=O)[O-])o2)sc(N)c1C#N | 1690 nM
CN(C)c1ccc(NC(=O)c2cn(-c3ccccc3)nc2-c2cccs2)cc1 | > 54000 nM
CN(C)c1ccc(C(CNC(=O)c2ccc(F)cc2)c2c[nH]c3ccccc23)cc1 (centres undefined) | > 54000 nM
Cn1c(N)c(C(=O)COC(=O)c2cc(-c3ccco3)nc3ccccc23)c(=O)n(Cc2ccccc2)c1=O | < 400 nM
O=C(OCC1O[C@@H](OC(=O)c2cc(O)c(O)c(O)c2)[C@@H](OC(=O)c2cc(O)c(O)c(O)c2)[C@@H](OC(=O)c2cc(O)c(O)c(O)c2)[C@@H]1OC(=O)c1cc(O)c(O)c(O)c1)c1cc(O)c(O)c(O)c1 (some centres undefined) | < 400 nM
CCOC(=O)C1CCN(C(=O)Nc2ccc3nc(-c4ccco4)c(-c4ccco4)nc3c2)CC1 | 932 nM
O=C(CCO)c1ccc(O)cc1 | 3190 nM
Cc1ccc(CNC(=O)c2ccc3c(=O)[nH]c4c(C(=O)NCC5CCCO5)sc(=S)n4c3c2)cc1 (centres undefined) | 11100 nM
Cc1cccc(NC2=C(NC(=O)c3ccccc3)C(=O)c3ccccc3C2=O)c1 | 3410 nM
O=c1cc(-c2ccccc2Cl)oc2c(NS(=O)(=O)c3cc(Cl)cc(Cl)c3O)ccc(O)c12 | 2410 nM
CC(=O)c1ccc(NC(=O)CSc2nnc(-c3ccco3)c(-c3ccco3)n2)cc1 | 5960 nM
COc1cc(/C=N/NC(=O)c2cc(-c3ccco3)nc3ccccc23)cc(OC)c1O | < 400 nM
O=C(/C=C/c1cccs1)N1CCN(c2ccc(O)cc2)CC1 | 3640 nM
CC(=O)Nc1sc(N/N=C\c2ccc(O)cc2)nc1-c1cccs1 | 1070 nM

Structure (SMILES) | IC50
O=C(O)C[C@@H]1C(=O)O[C@@H]2C(COC(=O)c3cc(O)c(O)c(O)c3)O[C@@H](OC(=O)c3cc(O)c(O)c(O)c3)[C@@H](OC(=O)c3cc(O)c(O)c4c3[C@H]1[C@H](O)C(=O)O4)[C@H]2OC(=O)c1cc(O)c(O)c(O)c1 (some centres undefined) | < 400 nM
O=C(O)CCCN1C(=O)/C(=C/c2cn(-c3ccccc3)nc2-c2cccs2)SC1=S | 1540 nM
COc1ccc(C(=O)N2c3ccccc3CC2C)cc1OC (centres undefined) | > 54000 nM
CS(=O)(=O)c1ccc(C(=O)NCCN2C(=O)S/C(=C\c3cccnc3)C2=O)cc1[N+](=O)[O-] | 3150 nM
CC(=O)c1cc(C#N)c(SCc2ccccn2)nc1C | > 54000 nM
Cc1ccc2c(c1)c1ccc3c(c1n2C)C(=O)C=CC3=O | < 400 nM
CCOc1ccc(N=C2NC(=O)S/C2=C\c2ccc(O)cc2)cc1 | 1260 nM
CCCCNC(=O)c1ccc2nc(-c3ccco3)c(-c3ccco3)nc2c1 | < 400 nM
CC1=C(C#N)C(=O)N(C2CCS(=O)(=O)C2)C(=O)/C1=C\c1ccc(C)o1 (centres undefined) | < 400 nM
O=C(Nc1ccc2c(c1)nc1n2CCN(C2CCCCC2)C1)c1ccco1 | 9740 nM
COc1ccc(C(=O)O)cc1NC(=S)NC(=O)c1ccc(-c2ccc(Cl)cc2)o1 | > 54000 nM
Cc1ccccc1C(=O)Nc1nc(-c2cccnc2)cs1 | < 400 nM
Nc1nc(=S)c2ncn(C3OC(CO)C(O)C3O)c2[nH]1 (centres undefined) | 9520 nM
Oc1ccc(/C=N/N=C(c2ccccc2)c2ccccc2)c(O)c1O | < 400 nM
O=C(N/N=C/c1ccc(-c2ccccc2C(=O)O)o1)c1cccs1 | 7880 nM
COc1ccc(S(=O)(=O)Nc2cc(Sc3ncn[nH]3)c(O)c3ccccc23)cc1 | < 400 nM
O=c1oc2ccccc2c2oc3cc(O)c(O)cc3c12 | < 400 nM
CC(=O)NC1=C(NC2CCS(=O)(=O)C2)C(=O)c2ccccc2C1=O (centres undefined) | 2770 nM
CCC(C)N1C(=O)/C(=C/c2ccc3c(c2)CCN3CCCCl)C(=O)NC1=S (centres undefined) | 1920 nM
O=C1NN(c2ccc(F)c(Cl)c2)C(=O)/C1=C\c1cccc(OC(=O)c2cccs2)c1 | 6860 nM
CC(C(=O)Nc1cc([N+](=O)[O-])ccc1Cl)N1CCN(c2ccc(O)cc2)CC1 (centres undefined) | > 54000 nM
CC(C)CNC(=O)c1c(N)n(Cc2ccco2)c2nc3ccccc3nc12 | > 54000 nM
CCOc1ccc(NC(=O)N(CCN2CCOCC2)Cc2ccc3c(c2)CCCN3CC)cc1 | 953 nM
Oc1ccc(-c2csc(Nc3ncccn3)n2)cc1O | < 400 nM
Cn1c(SCC(=O)Nc2ccc3nc(SCC(=O)N4CCCC4)sc3c2)nnc1-c1ccc(N)cc1 | 688 nM
Cc1cccc(N=C2NC(=O)/C(=C/C=C/c3ccco3)S2)c1C | 4150 nM

Structure (SMILES) | IC50
CC(C)n1c(Nn2cnnc2)nc2ccccc21 | > 54000 nM
O=C(Cc1cccs1)N/N=C/C=C\c1ccco1 | > 54000 nM
O=c1oc2ccccc2cc1-c1csc(Nc2ccc(O)cc2)n1 | 716 nM
CCN(CC)S(=O)(=O)c1cccc(C(=O)N/N=C/c2ccc(O)c(O)c2O)c1 | < 400 nM
O=C(NCc1ccccc1)c1ccc2nc(-c3ccco3)c(-c3ccco3)nc2c1 | 2300 nM
Oc1c(Br)cc(C=Nc2ccc3nc(-c4ccccc4)[nH]c3c2)c(O)c1Br | 594 nM
Cc1ccc2c(c1C)NC(C(=O)O)C1CC=CC21 (centres undefined) | 1070 nM
Cc1ccc(NC(=O)CN2C(=O)/C(=C3\SC(=S)N(C4CCS(=O)(=O)C4)C3=O)c3ccccc32)cc1 (centres undefined) | < 400 nM
CNc1sc(C(=O)c2ccccc2F)c(N)c1-c1nc2ccccc2s1 | 5670 nM
CC(=O)c1ccc(-n2c(CCC(=O)O)ccc2-c2cccs2)cc1 | > 54000 nM
COc1cc2c(ccc3cc(OC)c(OC)c(O)c32)cc1O | < 400 nM
Cc1ccc(N2NC(=O)/C(=C\c3cc4c(cc3[N+](=O)[O-])OCO4)C2=O)cc1C | 4920 nM
COc1ccccc1N1C(=O)C2ON(c3ccccc3)C(c3ccc(N(C)C)cc3)C2C1=O (centres undefined) | > 54000 nM
O=C(Nc1nc(-c2ccncc2)cs1)c1ccco1 | 3610 nM
Cc1cccc(OCCCC(=O)Nc2ccc(N(C)C)cc2)c1 | 1800 nM
O=C(NCc1ccccn1)c1ccc2nc(-c3ccco3)c(-c3ccco3)nc2c1 | 1380 nM
O=C(Nc1ccccc1)c1ccc2nc(-c3ccco3)c(-c3ccco3)nc2c1 | 3830 nM
O=C1Oc2ccccc2C(=O)/C1=C/c1ccccc1O | 3620 nM
CC1Oc2cc3c(-c4c(O)cc(O)c5c(O)c6c(cc45)OC(C)C(C)C6=O)c(O)cc(O)c3c(O)c2C(=O)C1C (centres undefined) | < 400 nM
CN(C)S(=O)(=O)c1cccc(-c2nn(-c3ccccc3)cc2/C=C2\SC(=S)NC2=O)c1 | 480 nM
CCOc1ccc(-c2ccc(/C=C3/C(=N)N4C=CSC4=NC3=O)o2)c([N+](=O)[O-])c1 | 1580 nM
O=C(O)c1cc(N2N=C(C(F)(F)F)/C(=C/C=C/c3ccco3)C2=O)ccc1Cl | < 400 nM
Cc1ccc(NC(=O)CN2C(=O)N/C(=C/c3cc(C)n(-c4ccc(C(=O)O)cc4)c3C)C2=O)cc1 | 5140 nM
O=C1NC(=S)NC(=O)C1=Cc1ccc2c(c1)CCN2CCCCl | < 400 nM
CC(=O)c1sc2nc(-c3cccs3)ccc2c1N | > 54000 nM
COc1ccc(C(=O)n2nc(C)c(Br)c2C)cc1 | > 54000 nM
